The test concerns the target PARP1 (poly ADP-ribose polymerase 1) (Homo sapiens, UniProt P09874). Put plainly: PARP1 enzymatic ELISA (histone-coated plates, biotinylated NAD+, HRP luminescence). Format: biochemical.

Structures are written as SMILES. Read-outs that look alike come from different tables or passages of the source.

Sequence of PARP1 (poly ADP-ribose polymerase 1) (P09874 2-1014): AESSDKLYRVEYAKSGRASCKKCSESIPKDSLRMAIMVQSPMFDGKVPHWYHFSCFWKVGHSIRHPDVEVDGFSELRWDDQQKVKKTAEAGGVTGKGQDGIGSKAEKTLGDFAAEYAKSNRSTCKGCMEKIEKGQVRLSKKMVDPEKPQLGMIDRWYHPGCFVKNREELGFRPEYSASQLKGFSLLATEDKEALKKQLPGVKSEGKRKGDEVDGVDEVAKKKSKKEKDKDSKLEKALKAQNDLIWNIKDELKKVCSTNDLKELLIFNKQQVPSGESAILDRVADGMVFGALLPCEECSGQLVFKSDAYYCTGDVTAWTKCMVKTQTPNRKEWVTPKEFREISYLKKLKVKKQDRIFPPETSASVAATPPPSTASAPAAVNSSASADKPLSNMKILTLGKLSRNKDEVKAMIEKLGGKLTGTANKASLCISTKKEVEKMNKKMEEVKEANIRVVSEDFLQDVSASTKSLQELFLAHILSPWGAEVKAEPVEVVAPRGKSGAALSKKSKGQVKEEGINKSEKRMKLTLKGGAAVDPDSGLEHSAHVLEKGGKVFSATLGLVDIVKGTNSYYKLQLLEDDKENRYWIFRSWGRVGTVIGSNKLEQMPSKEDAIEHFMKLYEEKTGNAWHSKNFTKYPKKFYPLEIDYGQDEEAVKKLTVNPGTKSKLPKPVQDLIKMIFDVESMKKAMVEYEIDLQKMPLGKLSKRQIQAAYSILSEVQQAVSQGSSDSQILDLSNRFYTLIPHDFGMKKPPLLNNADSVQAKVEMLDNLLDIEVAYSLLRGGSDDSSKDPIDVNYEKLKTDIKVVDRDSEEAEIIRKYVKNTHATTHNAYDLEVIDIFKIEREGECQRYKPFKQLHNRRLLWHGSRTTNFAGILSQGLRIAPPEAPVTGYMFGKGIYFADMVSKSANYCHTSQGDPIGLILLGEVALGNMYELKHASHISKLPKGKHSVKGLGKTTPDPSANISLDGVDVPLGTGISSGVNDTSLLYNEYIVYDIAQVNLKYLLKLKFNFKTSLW

As for `COc1ccc2ccc(=O)oc2c1CC=C(C)C` [compound 5, osthol], half-maximal inhibition (IC50) required 76.5 ± 12.4 µM.

For the compound `COc1c2ccoc2nc2c(O)cccc12` [compound 3, 8-hydroxy dictanmnine], the 50% inhibitory concentration (IC50) (commonly the point on the concentration scale where inhibition reaches its midpoint) is 44.9 ± 8.4 µM.

Take `COc1ccc2cc3[n+](cc2c1OC)CCc1cc(O)c(O)cc1-3` [compound 2, demethyleneberberine]: the IC50 amounted to 2 ± 0.8 µM.

In the case of `COc1ccc2ccc(=O)oc2c1CC(O)C(C)(C)O` (stereo not shown) [compound 4, meranzin hydrate], the IC50 (read-out: IC50) came to 67.2 ± 7.6 µM.

The values are drawn from paper PMC13284649, “Discovery of the PARP1 Inhibitors from Natural Compounds Using Structure-Based Virtual Screening and Bioactivity Evaluation” (Medicinal Chemistry (Shariqah (United Arab Emirates), 2025).
